Reference: patent US7439039B2, “Assays for novel serotonin transporter (SERT) blockers” (priority 2003, dated 2008)
Counter-ions that a name gives are not always drawn. Like-named read-outs stand apart in the source and are kept apart here.

Experiments:
hSERT WT = hSERT WT (Homo sapiens, UniProt P31645); experiment: cell-based; type: cell-based
hSERT Y95F = hSERT Y95F (Homo sapiens, UniProt P31645, Y95F)
Method: HeLa cells maintained at 37° C. in a 5% CO2 humidified incubator, were grown in complete medium (DMEM, 10% FBS, 2 mM L-glutamine, 100 units/ml penicillin, and 100 μg/ml streptomycin). For initial evaluation of mutant transporter activity, cells were plated at a density of 100,000 cells per well in 24 well culture plates. Cells were transfected with SERT mutant or wild-type constructs with 3 μl of Fugene 6 per μg of DNA pre-mixed in OptiMEM medium. Following transfection (16 hours), cells were washed with KRH assay buffer (120 mM NaCl, 4.7 mM KCl, 2.2 mM CaCl2, 1.2 mM MgSO4, 1.2 mM KH2PO4, 10 mM HEPES, pH 7.4) and assayed by competitive uptake assays where cells were preincubated for 10 min at 37° C. in assay buffer containing 1.8 g/L glucose and various concentrations of inhibitor compounds. […] The extent of [^3H]-5-HT accumulated was determined by liquid scintillation counting on a Packard TopCount System.
The resulting data was normalized to percent uptake of wild-type control and analyzed by a non-linear competition binding equation (Prism 4 for Mac, Graphpad Software) for [^3H]-5-HT (5-hydroxy[^3H]tryptamine trifluoroacetate, Amersham Pharmacia Biotech). […] For Ki values were determined by application of the Cheng and Prusoff equation. […]

| Structure (SMILES) | EC50 (hSERT WT) [µM] | EC50 (hSERT WT; read-out: EC50(μM) WT) [µM] | other results |
| --- | --- | --- | --- |
| NCCc1c[nH]c2c(O)c(O)c(O)cc12 [5,6,7 trihydroxytryptamine] | 14.3 |  |  |
| NCCc1c[nH]c2ccc(O)cc12 [5HT, 5-hydroxytryptamine] |  |  | recognition (hSERT Y95F): appeared normal |
| NCCc1c[nH]c2c(O)cccc12 [7-hydroxytryptamine] | 1.4 |  |  |
| CC(N)Cc1c[nH]c2ccc(O)cc12 (stereo not drawn) [Alpha-methylserotonin maleate] |  | 2.2 |  |
| CNC(C)Cc1ccc2c(c1)OCO2 (stereo not drawn) [MDMA] |  | 0.7 |  |
| OC1(c2ccc(Cl)cc2)c2ccccc2C2=NCCN21 (stereo not drawn) [Mazindol] | 2.9 |  |  |
| CNCCC(Oc1ccccc1OC)c1ccccc1 (stereo not drawn) [Nisoxetine] | 1.36 |  |  |
| COC(=O)[C@H]1C(c2ccc(I)cc2)C[C@@H]2CC[C@H]1N2C (stereo partly drawn) [RTI-55] |  | 0.0007 |  |
| NCCc1c[nH]c2ccccc12 [Tryptamine] | 0.2 |  |  |
